The record followed here is patent publication US11666050B2, “Enhancing the antimicrobial activity of biocides with polymers” (BASF SE, priority 2012, dated 2023).

Holding throughout (format): cell-based
The test system of assay [1] is Staphylococcus aureus ATCC 6538. Nature of the assay: Bactericidal activity, method EN1276 (Example 1, Table 3). The following applies: biocide 250 ppm a.i., no PEI (control), S. aureus ATCC 6538. An excerpt: (§1) Lines in grey shading indicate control sample (no PEI or no biocide added): […]
The test system is the same in assay [2]. Nature of the assay: Bactericidal activity, method EN1040 (Example 1, Table 2). The following applies: biocide alone; for log redn. after contact time 1 hr: contact time 1 hr; for log redn. after contact time 3 hrs: contact time 3 hrs; for log redn. after contact time 6 hrs: contact time 6 hrs; for log redn. after contact time 24 hrs: contact time 24 hrs.
Excerpt: as §1

Assay [3] deals with Pseudomonas aeruginosa ATCC 15442. Nature of the assay: Bactericidal activity, method EN1040 (Example 1, Table 1). The following applies: biocide alone; for log redn. after contact time 1 hr: contact time 1 hr; for log redn. after contact time 3 hrs: contact time 3 hrs; for log redn. after contact time 6 hrs: contact time 6 hrs; for log redn. after contact time 24 hrs: contact time 24 hrs.
Excerpt: as §1

As to `Oc1cc(Cl)ccc1Oc1ccc(Cl)cc1` [Tinosan® HP 100, Hydroxydichlorodiphenyl Ether], in assay [1], the “log redn. after Contact time 5 min” value came to 4.9 log redn.
Turning to `O=[N+]([O-])C(Br)(CO)CO` [Bronopol, 2-Bromo-2-nitropropane-1,3-diol], in assay [2] (0.1% a.i.), the “log redn. after contact time 1 hr” value is <1 log, the “log redn. after contact time 3 hrs” value is <1 log, the “log redn. after contact time 6 hrs” value is reported as <1 log and the “log redn. after contact time 24 hrs” value worked out at 2.4 log. Also, in assay [3] (0.1% a.i.), the “log redn. after contact time 1 hr” value was <1 log, the “log redn. after contact time 3 hrs” value is recorded as <1 log, the “log redn. after contact time 6 hrs” value amounted to 4.2 log and the “log redn. after contact time 24 hrs” value was found to be 2.4 log.
`OCCOc1ccccc1` [phenoxyethanol, 2-Phenoxyethanol]: in assay [2] (1% a.i.), the “log redn. after contact time 1 hr” value is listed as <1 log, the “log redn. after contact time 3 hrs” value is <1 log, the “log redn. after contact time 6 hrs” value is on record as <1 log and the “log redn. after contact time 24 hrs” value is recorded as 1.1 log. Further, in assay [3] (1% a.i.), the “log redn. after contact time 1 hr” value is <1 log, the “log redn. after contact time 3 hrs” value is given as 1.3 log, the “log redn. after contact time 6 hrs” value came out at 2.8 log and the “log redn. after contact time 24 hrs” value was >6 log.
